Our source for the IC50 values is US7417062B2, “Substituted arylamides” (ChemoCentryx, Inc., priority 2004, dated 2008).

In this experiment the target is T1, CCXCKR2 receptor (Homo sapiens, UniProt P25106).
T1 construct: host or cells: MCF-7 (endogenous) and/or MDA-MB-435S transfected with hRDC1 in pcDNA3.1(+)
T1 sequence (P25106 whole entry): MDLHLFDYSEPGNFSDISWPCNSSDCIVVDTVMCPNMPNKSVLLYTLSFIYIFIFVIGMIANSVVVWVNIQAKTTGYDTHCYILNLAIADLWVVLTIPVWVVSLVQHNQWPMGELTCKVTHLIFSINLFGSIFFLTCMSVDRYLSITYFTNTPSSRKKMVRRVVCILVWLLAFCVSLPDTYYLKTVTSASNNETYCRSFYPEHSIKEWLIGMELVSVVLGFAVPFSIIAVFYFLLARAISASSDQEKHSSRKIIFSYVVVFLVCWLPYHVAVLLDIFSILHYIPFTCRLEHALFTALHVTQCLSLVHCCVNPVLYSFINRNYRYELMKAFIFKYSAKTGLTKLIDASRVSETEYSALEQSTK
Kind of experiment: Displacement of 125I-labeled SDF-1 from the CCXCKR2 receptor (radioligand binding, determination of IC50 values). Conditions: MCF-7 and/or MDA-MB-435S cells expressing CCXCKR2; 125I SDF-1; 3 hr at 4° C.; read-out: Activity (ability to displace 125I SDF-1 from CCXCKR2). Summed up:
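Whole-cell filtration binding on MCF-7 and/or MDA-MB-435S cells stably transfected with human CCXCKR2, with compounds at multiple concentrations competing with 125I-SDF-1. Incubation was 3 hr at 4° C in HEPES buffer (CaCl2, MgCl2, 0.2% BSA, pH 7.1). Bound radioactivity was collected on PEI-treated GF/B filters and counted by scintillation to give IC50.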
With `COc1cc(C(=O)N(Cc2ccc3cc(F)ccc3n2)C[C@@H]2C[C@@H]3CCCC[C@@H]3N2)cc2c1OC(C)(C)O2` [Example 72, 7-Methoxy-2,2-dimethyl-benzo[1,3]dioxole-5-carboxylic acid (6-fluoro-quinolin-2-ylmethyl)-[(2S,3aS,7aS)-1-(octahydro-indol-2-yl)methyl]-amide], the IC50 is under 500 nM.
Take `COc1cc(C(=O)N(Cc2ccc3cc(Cl)ccc3n2)C[C@@H]2C[C@@H]3CCCC[C@@H]3N2)cc2c1OC(C)(C)O2` [Example 73, 7-Methoxy-2,2-dimethyl-benzo[1,3]dioxole-5-carboxylic acid (6-chloro-quinolin-2-ylmethyl)-[(2S,3aS,7aS)-1-(octahydro-indol-2-yl)methyl]-amide]: the IC50 was under 500 nM.
On to `COc1cc(C(=O)N(Cc2cc3ccccc3nn2)C[C@@H]2CCCN2C2CCC2)cc2c1OC(C)(C)O2` [Example 74, 7-Methoxy-2,2-dimethyl-benzo[1,3]dioxole-5-carboxylic acid cinnolin-3-ylmethyl-((S)-1-cyclobutyl-pyrrolidin-2-ylmethyl)-amide], for which the IC50 was under 2000 nM.
The result for `COc1ccc(C(=O)N(C[C@@H]2CCCN2CC2CCCCC2)c2cccc(-n3cccn3)c2)cc1OC` [Example 75, N-((S)-1-Cyclohexylmethyl-pyrrolidin-2-ylmethyl)-3,4-dimethoxy-N-(3-pyrazol-1-yl-phenyl)-benzamide] reads under 10000 nM; that for `COc1ccc(C(=O)N(C[C@@H]2CCCN2CC2CCCCC2)c2cccc(-n3ccnn3)c2)cc1OC` [Example 76, N-((S)-1-Cyclohexylmethyl-pyrrolidin-2-ylmethyl)-3,4-dimethoxy-N-(3-[1,2,3]triazol-1-yl-phenyl)-benzamide], under 10000 nM; that for `COc1cc(C(=O)N(Cc2nc(-c3ccccc3)c(C(F)(F)F)s2)C[C@@H]2C[C@@H]3CCCC[C@@H]3N2)cc2c1OC(C)(C)O2` [Example 77, 7-Methoxy-2,2-dimethyl-benzo[1,3]dioxole-5-carboxylic acid [(2S,3aS,7aS)-1-(octahydro-indol-2-yl)methyl]-(4-phenyl-5-trifluoromethyl-thiazol-2-ylmethyl)-amide], under 500 nM.
Next, `COc1cc(C(=O)N(Cc2nc(-c3ccccc3)sc2Cl)C[C@@H]2C[C@@H]3CCCC[C@@H]3N2)cc2c1OC(C)(C)O2` [Example 79, 7-Methoxy-2,2-dimethyl-benzo[1,3]dioxole-5-carboxylic acid (5-chloro-2-phenyl-thiazol-4-ylmethyl)-[(2S,3aS,7 aS)-1-(octahydro-indol-2-yl)methyl]-amide]: under 500 nM.
